The values that follow come from publication PMC8190080, “Tanshinones induce tumor cell apoptosis via directly targeting FHIT” (Scientific Reports, 2021).

The structures appear in SMILES notation.

One assay addresses T1, GALT (Homo sapiens, UniProt P07902).
T1 construct: 6xHis (N); made in house; host or cells: E. coli BL21(DE3)
As to the kind of experiment: MST assay, purified GALT. Type of assay: binding.

For assay [1], the target named is T2, FHIT (Homo sapiens, UniProt P49789).
T2 construct: GST (N, cleaved yes); made in house; host or cells: E. coli BL21 (DE3)
As to the kind of experiment: MST assay, purified Red-NHS labeled FHIT. Type of assay: binding. The protocol: The gene encoding human FHIT (P49789) was synthesized (Genscript, China) and cloned into pGEX-6P-1 such that the expressed protein would have an N-terminal glutathione S-transferase (GST)-tagged protein. The construct was transformed into expression host E.coli BL21 (DE3), and cells were grown in LB medium at 37 °C until the OD600 reached 0.6. The cells were then induced by adding 0.1 mM isopropyl-β-D-l-thiogalactopyranoside (IPTG) and grown at 18 °C overnight. Cells were harvested by centrifugation. The cell pellet was resuspended in a buffer containing 20 mM Tris (pH 7.5), 500 mM NaCl, and 2 mM DTT and lysed by sonication. After centrifugation, the clarified cell lysate was incubated with glutathione-sepharose 4B beads, and GST-tagged FHIT was eluted with the buffer consisting of 50 mM reduced glutathione. […]
Ten million 293 cells overexpressing GFP-tagged FHIT or free GFP were lysed in 0.5 mL M-PER mammalian protein extraction reagent (Thermo Fisher Scientific). […] The fluorescence signal during the thermophoresis was monitored and the change in fluorescence was analyzed by software. The Kd was calculated by fitting a standard binding curve to the series diluted ligands. And data were analyzed by GraphPad Prism 7.0.

The next assay deals with HCT116 cells. As to the kind of experiment: Colony formation assay. In kind it is cell-based, human. Particulars: up to 10 µM, 14 days. As to the method:
ENPP1 hydrolase activity detection assay
ENPP1 protein (4ng/µl) was mixed with series diluted compounds as indicated in assay buffer (50mM Tris-HCl, 2mM CaCl2, 2mM MgCl2, pH9.0) in a final DMSO concentration of 1% in a total volume of 20μL. The mixtures were incubated for 30min at 25°C, then 4µM Ap3A was added. After incubation at 25°C for 10min, ENPP1 should be inactivated at 85°C for 5min.
Then the production of ADP in the reaction system was detected by ADP-Glo reagent (V6930, Promega) according to the manufacturer’s protocol in 384-well. Luminescence was read by spark (TECAN), an integration time of 1 second per well. And the data were analyzed by […]
Fluorescent thin layer enzyme assay for ENPP1
Small molecules, when indicated at series concentrations, were mixed with 2.5µM the fluorescent substrate ApppBODIPY. Then, 10nM purified ENPP1 protein was added to the reaction system at 25°C containing 50mM Tris-HCl pH9.0, 2mM CaCl2, 2mM MgCl2. Reaction samples (0.6µL) were spotted on silica TLC plates (Merck) at 60–120s intervals. Plates were air-dried and developed in 2-propanol:NH4OH:1,4-dioxane: H2O (50:35:8:7) as reported before. Developed plates were imaged by fluorescein blot (ChemiDoc, Bio-rad).
Colony formation assay was performed as described before. Briefly, ~200/well single cells were planted into 6-well plate. […]

Assay [2] addresses T2, FHIT. As to the kind of experiment: FHIT hydrolase activity detection assay (Ap3A, ADP-Glo). Type of assay: biochemical. Conditions: 5 nM FHIT, 500 nM Ap3A, ADP production by ADP-Glo. The protocol:
5 nM FHIT protein was mixed with series diluted compounds as indicated in assay buffer (20 mM Tris–HCl, 2 mM DTT, 5 mM MgCl2, pH7.5) in a final DMSO concentration of 1% in a total volume of 20 μL. The mixtures were incubated for 30 min at 25 °C, then 500 nM Ap3A was added. After incubation at 25 °C for 5 min, the production of ADP in the reaction system was detected by ADP-Glo reagent (V6930, Promega) according to the manufacturer’s protocol in 384-well. Luminescence was read by spark (TECAN), an integration time of 1 s per well. And the data were analyzed by GraphPad Prism 7.0.

T2 sequence (P49789 whole entry): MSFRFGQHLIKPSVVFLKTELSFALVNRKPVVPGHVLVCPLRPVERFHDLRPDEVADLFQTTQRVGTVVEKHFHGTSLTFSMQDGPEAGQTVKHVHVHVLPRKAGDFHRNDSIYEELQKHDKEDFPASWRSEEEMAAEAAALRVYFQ
T1 sequence (P07902 whole entry): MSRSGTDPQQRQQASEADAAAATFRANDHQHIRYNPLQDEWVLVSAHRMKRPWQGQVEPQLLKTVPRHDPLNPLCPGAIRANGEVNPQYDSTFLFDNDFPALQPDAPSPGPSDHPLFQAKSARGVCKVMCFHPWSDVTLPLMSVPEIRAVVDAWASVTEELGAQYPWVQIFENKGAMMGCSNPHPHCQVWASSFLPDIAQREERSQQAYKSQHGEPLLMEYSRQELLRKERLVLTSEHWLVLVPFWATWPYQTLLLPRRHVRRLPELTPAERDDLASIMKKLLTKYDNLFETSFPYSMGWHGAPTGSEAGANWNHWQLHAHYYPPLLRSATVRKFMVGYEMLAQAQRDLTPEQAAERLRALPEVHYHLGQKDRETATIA

As to `Cc1c(S(=O)(=O)O)oc2c1C(=O)C(=O)c1c-2ccc2c1CCCC2(C)C` [STS, Sodium tanshinone IIA sulfonate], the Kd at GALT came to 12900 ± 540 nM; on FHIT [1] (FHIT purified from E.coli, Red-NHS labeled, MST), 1820 ± 300 nM. In addition, the “binding affinity of purified FHIT, times lower than cellular FHIT” value at FHIT [1] (purified FHIT vs cellular GFP-FHIT) stood at 5. Also, in the assay with HCT116 cells, the “colony formation of HCT116 cells” value was “no effect was detected”. The compound also showed an IC50 against FHIT [2] of 340 ± 90 nM.
